The values below come from patent US12234228B2, “Nitric oxide donor and anti-oxidant compounds” (University of North Texas Health Science Center, priority 2018, dated 2025).

SMILES strings stand for the structures. Entries after “also recorded” stand apart in the source; their conditions may differ.

Data set [1] concerns Nitric oxide synthetase (NOS). Description: NOS activating activity in HUVEC under H2O2 stress. Conditions: HUVEC under H2O2 induced oxidative stress. The data set is classed as cell-based, Human. The procedure:
In vitro Nitric oxide synthetase (NOS) activating activity. Human Umbilical Vascular Endothelial Cells (HUVECs) were plated at a density of 2×10^5 cells per well and were treated with or without H2O2 (200 μM) and compounds at different concentrations. NOS knock-down samples (NOSi) were cells exposed to a competitive NOS inhibitor L-NNA at 50 μM. After 24-hour-treatment, total NOS activity from treated cells was quantified using OxiSelect™ Intracellular Nitric Oxide (NO) Assay Kit where NOS activity correlates to fluorescent intensity^5.

A further data set has as its system ROS in HUVEC cells. Briefly: ROS scavenging in HUVEC under oxidative stress (DCFDA assay). The data set is classed as cell-based, Human. Conditions: H2O2 induced oxidative stress, SA-9 at 0.05 μM.
Data set [2] deals with HUVEC. Description: HUVEC viability / cytoprotection under H2O2 induced oxidative stress (MTT). The data set is classed as cell-based, Human.
Data set [3] deals with HUVEC. Description: in vitro angiogenesis / tube formation under oxidative stress. The data set is classed as cell-based, Human. How it is done: In vitro angiogenesis studies. Cultrex reduced growth factor basement membrane extracted gel (Cat. 3433-005-01, R&D Systems, Inc.) was coated on bottom of μ-Slide angiogenesis wells (Cat. 81506, iBidi GmbH Co.). ECs at early passages (passage 6th or earlier) were then seeded on gel at a seeding density of 25,000 cells/cm^2. Next, cells were treated with treatment groups (SA-2, SA-10, SA-10 NPs, VEGF) under stress condition (200 μM H2O2). After 12 hours of incubation, formation of new microtubes were visualized and captured on phase contrast microscopes. Images were then stacked and processed with Angiogenesis analyzer on ImageJ.

A further data set deals with endothelial cells. Description: transwell chemotaxis EC migration under oxidative stress. The data set is classed as cell-based, Human. How it is done:
Cell migration studies. Transwell chemotaxis migration studies were conducted to study effects of SA-2 and SA-10 drugs on the migration of endothelial cells under stress conditions. To this, ECs were seeded at 50,000 cells/cm^2 on upper compartment (low serum media with 200 μM H2O2) and attracted to migrate through 8 μm-pore membrane by chemotaxis (SA compounds dissolved in low serum media with 200 μM H2O2) added in lower compartment. At 12 hours, migrated cells were fixed with 4% paraformaldehyde and stained with crystal violet prior to imaging and counting by Cell counter on ImageJ.

The test system of data set [4] is human trabecular meshwork cells. Briefly: cytoprotection of human trabecular meshwork cells under TBHP induced oxidative stress. It counts as cell-based. Conditions: TBHP (300 μM) induced oxidative stress.
The test system of data set [5] is plasminogen activating inhibitor-1 (PAI-1). Briefly: DEX induced PAI-1 in human trabecular meshwork cells (western blot). It counts as cell-based. Conditions: DEX 100 nM, compound 100 μM, 48 hr, conditioned medium. How it is done: Briefly, cells were plated at a density of 2×10^5 cells per well and were treated with DEX (100 nM) or vehicle (ethanol) in the presence of 100 μM of SA-1, SA-2, SA-9, SA-10 and PBA (positive control) for 48 hr. Conditioned medium was collected for western blot. Experiments were performed in triplicates.
In vitro plasminogen activating inhibitor-1 (PAI-1) activity. Human primary trabecular meshwork (hTM) cells were plated in 6-well plates at a density of 2×10^5 cells per well and were treated with dexamethasone (DEX, 100 nM) or vehicle (ethanol) in the presence of test compounds (100 μM) for 48 hr. Conditioned medium was collected for Western Blot. Experiments were performed in triplicates […].
Background: Immunoblotting shows a protein as a band on a membrane.

The test system of data set [6] is primary microglia isolated from rat retina. Description: TII induced nitric oxide in primary microglia (Greiss assay). Particulars: 10 μM, 24 h. The data set is classed as cell-based.
Data set [7] shares this test system. Description: TII induced cell death in primary microglia (LDH assay). The data set is classed as cell-based. Conditions: 10 μM, 24 h.
The next data set deals with I/R mice retina. Description: retinal ischemia/reperfusion injury model in mouse eyes. The data set is classed as in vivo. The procedure:
The function of retinal ganglion cells (RGCs) can be non-invasively assessed by pattern electroretinogram (PERG) a technique that emphasizes the activity of inner retina neurons. The amplitude of PERG reflects the degree of apparent damage by RGCs. A murine model of ocular stroke was employed to evaluate the function of […] upon administration of SA-10. After a single intravitreal injection of 100 μM of SA-10 to the left eye of mice (C57BL/6J, 12 weeks old, female) having undergone ischemia reperfusion (I/R) procedure, standard PERG was analyzed 1 week post I/R to determine whether compound SA-10 could prevent PERG deficits (FIGS. 9A & 9B). […] However, there was a significant decrease in PBS treated mice compared to PERG amplitudes from sham mice (14.8±1.4 μV, n=5). As expected, compound SA-10 injection increased PERG amplitude compared to PBS-treated I/R mice (21±1.4 μV, n=5, p<0.05 vs. I/R+PBS treated mice; values signify mean±SEM).
Ischemic/reperfusion injury model in mouse eyes. Mice (C57Bl6/J, 12 weeks, n=5) were anesthetized and the ischemic/reperfusion (I/R) injury was performed on left eye after it was numbed with proparacaine followed by intravitreal injection of 2 μl of […] of compound SA-10 formulated in PBS (I/R+SA-10 group) or only 2 μl PBS to left eye (I/R+PBS group) at days 0. At day 7, pattern ERG was performed with the JORVEC System. SD-OCT was done to measure the change in overall thickness of retina layers and flash ERG was done to measure the function of bipolar cells (b-wave) as well as photoreceptor cells (a-wave) after 28 days. Pattern ERG was performed to measure the function of RGCs. Right eye was served as contralateral control.

In data set [8] the test system is primary microglia isolated from rat retina. Description: TII induced ROS in primary microglia (DCFDA assay).

On to `Nc1c[n+](C2CCS(=O)(=O)CC2)no1` [SA-10], for which the eNOS activity entry in data set [1] is recorded as “induced eNOS signals”. Further, in the data set with ROS in HUVEC cells, the “ROS scavenging activity in DCFDA assay” value was “didn't show any significant ROS scavenging activity”. Besides, the “EC protection, longer protection study” value in the data set on HUVEC [2] (2-day stress with 400 μM H2O2) is “protected over the course of 2-day stress”. Also, the “effective range of concentration to protect ECs” value in the data set with HUVEC [2] (ECs under H2O2 stress) was “up to 100 μM”. Also, the cytoprotective activity entry in the data set on HUVEC [2] (HUVEC, H2O2 induced oxidative stress, different concentrations) is reported as “potent cytoprotective activity”; in [4], “cytoprotective activity”. In the data set on HUVEC [3] (HUVEC under oxidative stress (200 μM H2O2)), the “angiogenesis and new tube formation” value is “induce angiogenesis and new tube formation; also recorded: significantly induced tube formation”. Also, the “angiogenesis and new tube formation (FIG. 5)” value in the data set with HUVEC [3] (SA-9 0.5 μM, SA-10 0.005 μM, H2O2 200 μM, low serum media) was “induce angiogenesis and new tube formation”. Moreover, the EC migration entry in the data set on endothelial cells was “induce EC migration; also recorded: performed comparably to SA-2”. Besides, the “EC migration (FIG. 6)” value in the data set on endothelial cells (0.5 μM, transwell) was “induce EC migration”. In addition, the “DEX induced PAI-1” value in data set [5] is listed as “showed inhibition; also recorded: decreased DEX induced increase in PAI-I level”. For the same compound, the “TII induced nitric oxide (nitrite) production” value in data set [6] is reported as “decrease”. In addition, in data set [7], the “TII induced cell death (LDH release)” value is “decrease the cell death”. In the data set on I/R mice retina (1 week post I/R, single intravitreal injection 100 μM, mean±SEM, n=5), this compound registered a PERG amplitude of 21±1.4 μV. For the same compound, the “retinal layer thickness by SD-OCT” value in the data set with I/R mice retina (after I/R) was “maintenance of retinal layer thickness”. For the same compound, in the data set with I/R mice retina (flash ERG 28 days post-I/R), the “ERG amplitude (a- and b-wave) damage after I/R” value is reported as “significantly reversed these damages”. For the same compound, the “protein nitrosylation in retina” value with I/R mice retina (intravitreal dosing of 2%) is reported as “doesn't cause any significant protein nitrosylation”. Further, the “retina protection against ischemic stroke and reperfusion” value with I/R mice retina (single intravitreal injection) is “protective to retina”. The “TII induced ROS production” value in data set [8] (10 μM, 24 h, TII = TNF-α, IL-1β, IFN-γ) was “decrease”. Further, the “activation of microglia by the compound itself” value in [8] (rat primary microglia, without TII) was “did not activate”.
